# Results published in US8486885B2, “β-arrestin effectors and compositions and methods of use thereof” (Trevena, Inc., priority 2008, dated 2013).
# Non-standard residues stand in square brackets, D forms with d. Residues, ends and D or L forms follow the SMILES beside them. Sar = CNCC(=O)O
# Columns and labels:
# Assay type in all cases: cell-based
# [1] = biological target: T1, human angiotensin 2 type 1 receptor (human AT1R) (Homo sapiens, UniProt P30556); assay: IP1 accumulation assay (IP-One Tb), human AT1R; settings: cells expressing human AT1R
# T1 construct: expressed in transfected cells
# T1 sequence (P30556 1-359): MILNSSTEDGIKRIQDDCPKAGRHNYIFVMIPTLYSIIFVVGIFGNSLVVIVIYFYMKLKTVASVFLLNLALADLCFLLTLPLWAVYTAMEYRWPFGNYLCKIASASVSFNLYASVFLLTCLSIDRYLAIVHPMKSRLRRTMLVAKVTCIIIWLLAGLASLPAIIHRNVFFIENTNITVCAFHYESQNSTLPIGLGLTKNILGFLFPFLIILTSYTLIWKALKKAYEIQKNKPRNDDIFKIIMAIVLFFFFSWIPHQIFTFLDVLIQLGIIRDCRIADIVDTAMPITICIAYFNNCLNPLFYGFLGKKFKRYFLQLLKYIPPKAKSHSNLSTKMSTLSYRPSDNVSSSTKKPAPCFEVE
# Protocol: (§1) A secondary measure of G protein coupling efficacy was also performed. IP3 is generated by activation of phospholipase C by Gα-q. IP3 is degraded to IP1, which can be forced to accumulate in cells by blocking degradation with lithium chloride. Thus we measured accumulation of IP1 to determine ligand efficacy for G protein activation.
# (§2) IP1 accumulation generated by human and rat angiotensin 2 type 1 receptor (human AT1R and rat AT1aR, respectively) was measured with IP-One Tb kits purchased from Cisbio and used per the manufacturer's instructions. Clonal stably transfected cell lines expressing human AT1TR or rat AT1aR were used for all experiments.
# (§3) For assays, 4,000 cells were seeded per well in 384-well small-volume microplates in volumes of 20 uL and allowed to grow overnight at 37° C. in 5% CO2. Cell growth media was then replaced with stimulation buffer supplied by Cisbio containing 50 mM lithium chloride. Peptides TRV-120,001 through TRV-120,035 were dissolved in deionized water to a concentration of 1 mM. For agonist detection, peptides were then further diluted in stimulation buffer to add peptide to the cells to reach final concentrations ranging from 10 uM to 1 pM. […] Following addition of peptides, cells were incubated at 37° C. in 5% CO2 for 30 minutes and then lysed with detection reagents added per manufacturer's instructions.
# [2] = biological target: rat angiotensin 2 type 1 receptor (rat AT1aR) (Rattus norvegicus, UniProt P25095); assay: PathHunter β-arrestin-2 recruitment assay, rat AT1aR; settings: PathHunter β-arrestin HEK293 cells; for EC50: read-out: rat AT1aR b-arrestin2 EC50
# Protocol: (§4) The proximal event in β-arrestin function mediated by GPCRs is recruitment to receptors following ligand binding and receptor phosphorylation by GRK's. Thus, the measure of β-arrestin recruitment was used to determine ligand efficacy for β-arrestin function.
# (§5) B-arrestin-2 recruitment to the human and rat angiotensin 2 type 1 receptor (human AT1R and rat AT1aR, respectively) was measured with the PathHunter™ β-arrestin assay (DiscoveRx Corporation, Fremont Calif.). Cells, plasmid(s), and detection reagent(s) were purchased from DiscoveRx, and assays were performed per manufacturer's instructions. Human AT1R and rat AT1aR were cloned into the pCMV-ProLink vector, verified by sequencing, and transfected into PathHunter β-arrestin HEK293 cells. Stably transfected clonal cell lines were selected with Hygromycin and G418. These clonal cell lines were used for all experiments.
# (§6) For assays, 25,000 cells were seeded per well in 96-well microplates in volumes of 90 μL and allowed to grow overnight at 37° C. in 5% CO2. Peptides of the invention were dissolved in deionized water to a concentration of 1 mM. Peptides were then further diluted in assay buffer (Hank's balanced salt solution with 20 mM HEPES) to add peptide to the cells to reach final concentrations ranging from 10 μM to 1 pM. Cells were then incubated for 60 minutes at 37° C. in 5% CO2, followed by addition of 50 μL of PathHunter Detection Reagent to each well. The microplates were then incubated at room temperature for 60 minutes, and then luminescence was measured using a NOVOstar microplate reader purchased from BMG Labtech. B-arrestin-2 recruitment to receptors was measured as relative luminescence intensity expressed in arbitrary units.
# Target sequence in this assay (P32121 whole entry partner, one chain of several): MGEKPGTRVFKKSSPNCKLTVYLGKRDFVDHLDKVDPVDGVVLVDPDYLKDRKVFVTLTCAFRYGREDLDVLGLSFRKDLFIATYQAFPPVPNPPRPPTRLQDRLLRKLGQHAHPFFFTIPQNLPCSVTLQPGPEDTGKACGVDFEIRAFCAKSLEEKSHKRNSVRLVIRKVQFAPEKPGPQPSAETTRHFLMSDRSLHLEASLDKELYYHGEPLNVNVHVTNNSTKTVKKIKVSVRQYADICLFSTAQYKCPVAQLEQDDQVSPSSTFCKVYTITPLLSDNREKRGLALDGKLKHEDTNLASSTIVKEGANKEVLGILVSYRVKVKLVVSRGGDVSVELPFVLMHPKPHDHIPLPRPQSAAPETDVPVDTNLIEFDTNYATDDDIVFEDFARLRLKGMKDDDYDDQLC
# [3] = biological target: T2, rat angiotensin 2 type 1 receptor (rat AT1aR) (Rattus norvegicus, UniProt P25095); assay: IP1 accumulation assay (IP-One Tb), rat AT1aR; settings: cells expressing rat AT1aR
# T2 construct: expressed in transfected cells
# T2 sequence (P25095 1-359): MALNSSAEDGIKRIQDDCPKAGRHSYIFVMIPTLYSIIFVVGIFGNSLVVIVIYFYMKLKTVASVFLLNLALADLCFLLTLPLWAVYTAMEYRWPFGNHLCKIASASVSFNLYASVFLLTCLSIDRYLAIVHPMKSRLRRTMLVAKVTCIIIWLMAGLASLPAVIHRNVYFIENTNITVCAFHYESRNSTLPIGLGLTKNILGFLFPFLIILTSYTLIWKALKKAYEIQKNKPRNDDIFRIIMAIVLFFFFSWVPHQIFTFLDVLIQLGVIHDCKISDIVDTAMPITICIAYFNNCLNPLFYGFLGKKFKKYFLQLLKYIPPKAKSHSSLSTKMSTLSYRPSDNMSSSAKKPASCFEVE
# Protocol: as §1, §2, §3
# [4] = biological target: human angiotensin 2 type 1 receptor (human AT1R) (Homo sapiens, UniProt P30556); assay: PathHunter β-arrestin-2 recruitment assay, human AT1R; settings: PathHunter β-arrestin HEK293 cells; for EC50: read-out: human AT1R b-arrestin2 EC50
# Protocol: as §4, §5, §6
# Target sequence in this assay (P32121 whole entry partner, one chain of several): as the sequence (P32121 whole entry partner, one chain of several) above
SMILES,human AT1R IP One EC50 (M) [1],rat AT1aR b-arrestin2 Max (%) [2] [%],EC50 [2] [nM],rat AT1aR IP One EC50 (M) [3],human AT1R b-arrestin2 Max (%) [4] [%],EC50 [4] [nM],EC50 [3] [nM],rat AT1aR IP One Max (%) [3] [%]
"CNCC(=O)N[C@@H](CCCNC(=N)N)C(=O)N[C@H](C(=O)N[C@@H](Cc1ccc(O)cc1)C(=O)N[C@@H](CCC(=O)O)C(=O)N[C@@H](Cc1c[nH]cn1)C(=O)N1CCC[C@H]1C(N)=O)C(C)C [SEQ ID NO:40, Sar-Arg-Val-Tyr-Glu-His-Pro-NH2] (H-[Sar]RVYEHP-NH2; N-terminus assumed)",inactive,87.9,31,Inactive,53.2,–,–,–
"CNCC(=O)N[C@@H](CCCNC(=N)N)C(=O)N[C@H](C(=O)N[C@@H](Cc1ccc(O)cc1)C(=O)N[C@@H](Cc1ccccc1)C(=O)N[C@@H](Cc1c[nH]cn1)C(=O)N1CCC[C@H]1C(N)=O)C(C)C [SEQ ID NO:41, Sar-Arg-Val-Tyr-Phe-His-Pro-NH2]",inactive,53.1,–,Inactive,30.1,1600,–,–
"CNCC(=O)N[C@@H](CCCNC(=N)N)C(=O)N[C@H](C(=O)N[C@@H](Cc1ccc(O)cc1)C(=O)N[C@@H](Cc1c[nH]cn1)C(=O)N[C@@H](Cc1c[nH]cn1)C(=O)N1CCC[C@H]1C(N)=O)C(C)C [SEQ ID NO:42, Sar-Arg-Val-Tyr-His-His-Pro-NH2] (H-[Sar]RVYHHP-NH2; N-terminus assumed)",inactive,74.9,270,Inactive,46.4,630,–,–
"CNCC(=O)N[C@@H](CCCNC(=N)N)C(=O)N[C@H](C(=O)N[C@@H](Cc1ccc(O)cc1)C(=O)N[C@@H](CCCCN)C(=O)N[C@@H](Cc1c[nH]cn1)C(=O)N1CCC[C@H]1C(N)=O)C(C)C [SEQ ID NO:43, Sar-Arg-Val-Tyr-Lys-His-Pro-NH2] (H-[Sar]RVYKHP-NH2)",inactive,64.8,–,–,42.7,–,260,17.9
"CNCC(=O)N[C@@H](CCCNC(=N)N)C(=O)N[C@H](C(=O)N[C@@H](Cc1ccc(O)cc1)C(=O)N[C@@H](CCCNC(=N)N)C(=O)N[C@@H](Cc1c[nH]cn1)C(=O)N1CCC[C@H]1C(N)=O)C(C)C [SEQ ID NO:45, Sar-Arg-Val-Tyr-Arg-His-Pro-NH2] (H-[Sar]RVYRHP-NH2; N-terminus assumed)",inactive,91.7,27,–,53.3,–,–,10.2
CC[C@H](C)[C@H](NC(=O)[C@H](Cc1ccc(O)cc1)NC(=O)[C@@H](NC(=O)[C@H](CCCNC(=N)N)NC(=O)[C@@H](C)NC)C(C)C)C(=O)N[C@@H](Cc1c[nH]cn1)C(=O)N1CCC[C@H]1C(=O)N[C@@H](C)C(=O)O [SEQ ID NO:47],–,72.2,2100,Inactive,80.5,–,–,–
"CC[C@H](C)[C@H](NC(=O)[C@H](Cc1ccccc1)NC(=O)[C@@H](NC(=O)[C@H](CCCNC(=N)N)NC(=O)CNC)C(C)C)C(=O)N[C@@H](Cc1c[nH]cn1)C(=O)N1CCC[C@H]1C(=O)N[C@H](C)C(=O)O [SEQ ID NO:48, Sar-Arg-Val-Phe-Ile-His-Pro-D-Ala-OH]",inactive,42.1,–,–,48.1,–,200,13.9
"CC[C@H](C)[C@H](NC(=O)[C@H](Cc1ccc(O)cc1)NC(=O)[C@@H](NC(=O)[C@H](CCCCN)NC(=O)CNC)C(C)C)C(=O)N[C@@H](Cc1c[nH]cn1)C(=O)N1CCC[C@H]1C(=O)N[C@H](C)C(=O)O [SEQ ID NO:49, Sar-Lys-Val-Tyr-Ile-His-Pro-D-Ala-OH]",inactive,52.9,630,Inactive,72.7,1000,–,–
"CC[C@H](C)[C@H](NC(=O)[C@H](Cc1ccc(O)cc1)NC(=O)[C@@H](NC(=O)[C@H](CCCNC(=N)N)NC(=O)CNC)C(C)C)C(=O)N[C@@H](CCCCN)C(=O)N1CCC[C@H]1C(=O)N[C@H](C)C(=O)O [SEQ ID NO:50, Sar-Arg-Val-Tyr-Ile-Lys-Pro-D-Ala-OH] (H-[Sar]RVYIKP[dA]-OH; N-terminus assumed)",inactive,85.6,270,Inactive,56.8,680,–,–
"CC[C@H](C)[C@H](NC(=O)[C@H](Cc1ccc(O)cc1)NC(=O)[C@@H](NC(=O)[C@H](CCCNC(=N)N)NC(=O)CNC)C(C)C)C(=O)N[C@@H](Cc1c[nH]cn1)C(=O)N1CCC[C@@H]1C(N)=O [SEQ ID NO:51, Sar-Arg-Val-Tyr-Ile-His-D-Pro-NH2]",inactive,5.8,–,Inactive,20.2,330,–,–
"CNCC(=O)N[C@@H](CCCNC(=N)N)C(=O)N[C@H](C(=O)N[C@@H](Cc1ccc(O)cc1)C(=O)N[C@@H](Cc1ccc(O)cc1)C(=O)N[C@@H](Cc1c[nH]cn1)C(=O)N1CCC[C@H]1C(=O)O)C(C)C [SEQ ID NO:52, Sar-Arg-Val-Tyr-Tyr-His-Pro-OH]",inactive,83.8,–,–,45.9,1400,–,8.0
"CNCC(=O)N[C@@H](CCCNC(=N)N)C(=O)N[C@H](C(=O)N[C@@H](Cc1ccc(O)cc1)C(=O)N[C@H](C)C(=O)N[C@@H](Cc1c[nH]cn1)C(=O)N1CCC[C@H]1C(N)=O)C(C)C [SEQ ID NO:53, Sar-Arg-Val-Tyr-D-Ala-His-Pro-NH2]",inactive,12.2,–,Inactive,33.6,1600,–,–
"CNCC(=O)N[C@@H](CCCNC(=N)N)C(=O)N[C@H](C(=O)N[C@@H](Cc1ccc(O)cc1)C(=O)N[C@H](C(=O)N[C@@H](Cc1c[nH]cn1)C(=O)N1CCC[C@H]1C(=O)O)C(C)C)C(C)C [SEQ ID NO:54, Sar-Arg-Val-Tyr-Val-His-Pro-OH]",inactive,83.0,–,Inactive,58.6,–,–,–
